Measured values from patent US6608109B2, “Composition comprising L-arginine as a muscle growth stimulant and use thereof” (priority 1991, dated 2003).

Assays:
[1] = Oral administration of M2 to test subjects: muscle mass and bodyfat; assay type: in vivo, human
Procedure: The above composition (identified as M2) was administered to test subjects. Those tests and the results are described in Example 2.

[2] = Oral administration of M2 / L-arginine to test subjects: side-effects and tolerance; assay type: in vivo, human; conditions: L-arginine taken alone on an empty stomach
From the text: The subject was placed on L-Arginine M2 therapy.

N=C(N)NCCCC(N)C(=O)O [L-Arginine, 2-amino-5-guanidinovaleric acid]
Therapeutic dose for this subject ([1]; subject (1)): 15 grams L-Arginine per day | dose required for Growth Hormone response out of pituitary gland ([1]; subject (2), totally empty stomach: 3+ hours): 15-20 grams | disadvantages (side effects) from ingestion [2]: headache, diarrhea, flatulence, depletion of electrolytes
